# According to ChEMBL document CHEMBL3885881, “DrugMatrix”:
# Species: Rattus norvegicus
# Experiment: DrugMatrix - Regimen: Daily Repeat
# Format: toxicity, organism-based, Sprague-Dawley
# Parameters: regimen Daily Repeat, gender Male, age 6-8 weeks
# Conditions: in vivo, po, route oral GAVAGE, […]; for ABSOLUTE BASOPHIL / ABSOLUTE EOSINOPHIL / ABSOLUTE LYMPHOCYTE / ABSOLUTE MONOCYTE / ABSOLUTE SEGMENTED NEUTROPHIL / BASOPHIL / EOSINOPHIL / ERYTHROCYTE COUNT / HEMATOCRIT / HEMOGLOBIN / LEUKOCYTE COUNT / LYMPHOCYTE / MEAN CORPUSCULAR HEMOGLOBIN / MEAN CORPUSCULAR HEMOGLOBIN CONCENTRATION / MEAN CORPUSCULAR VOLUME / MONOCYTE / NEUTROPHIL / NUCLEATED RED BLOOD CELLS / PLATELET COUNT: tissue Blood; for ALANINE AMINOTRANSFERASE / ALBUMIN / ALKALINE PHOSPHATASE / ASPARTATE AMINOTRANSFERASE / BLOOD UREA NITROGEN / CARBON DIOXIDE / CHLORIDE / CHOLESTEROL / CREATINE PHOSPHOKINASE / CREATININE / GLUCOSE / LACTATE DEHYDROGENASE / LIPASE / PHOSPHORUS / POTASSIUM / SODIUM / TOTAL BILIRUBIN / TOTAL PROTEIN / URIC ACID: tissue Plasma
# [1] = 0 mg/kg, 72 h, dose level Control, time 3 day
# [2] = 0 mg/kg, 120 h, dose level Control, time 5 day
# [3] = 5 mg/kg, 72 h, dose level Low, time 3 day
smiles,measurement,setting,value
O=c1oc2ccccc2c(O)c1Cc1c(O)c2ccccc2oc1=O [DICUMAROL],ABSOLUTE BASOPHIL,[1],0 CELLS/uL
same,ABSOLUTE EOSINOPHIL,[1],0 CELLS/uL
same,ABSOLUTE LYMPHOCYTE,[1],9244.83 CELLS/uL
same,ABSOLUTE MONOCYTE,[1],102 CELLS/uL
same,ABSOLUTE SEGMENTED NEUTROPHIL,[1],869.83 CELLS/uL
same,BASOPHIL,[1],0%
same,EOSINOPHIL,[1],0%
same,ERYTHROCYTE COUNT,[1],5.43 x10E6/uL
same,HEMATOCRIT,[1],34.03%
same,HEMOGLOBIN,[1],13.27 G/DL
same,LEUKOCYTE COUNT,[1],10.22 x10E3/uL
same,LYMPHOCYTE,[1],90.33%
same,MEAN CORPUSCULAR HEMOGLOBIN,[1],24.48 pg
same,MEAN CORPUSCULAR HEMOGLOBIN CONCENTRATION,[1],39.03 G/DL
same,MEAN CORPUSCULAR VOLUME,[1],62.75 fL
same,MONOCYTE,[1],1%
same,NEUTROPHIL,[1],8.67%
same,NUCLEATED RED BLOOD CELLS,[1],0.17 /100WBC
same,PLATELET COUNT,[1],989 x10E3/uL
same,ALANINE AMINOTRANSFERASE,[1],77 u/L
same,ALBUMIN,[1],3.97 G/DL
same,ALKALINE PHOSPHATASE,[1],464.83 u/L
same,ASPARTATE AMINOTRANSFERASE,[1],89.83 u/L
same,BLOOD UREA NITROGEN,[1],12.17 mg/dL
same,CARBON DIOXIDE,[1],34.17 mmol/L
same,CHLORIDE,[1],98.33 MEQ/L
same,CHOLESTEROL,[1],75.17 mg/dL
same,CREATINE PHOSPHOKINASE,[1],367.67 u/L
same,CREATININE,[1],0.16 mg/dL
same,GLUCOSE,[1],142.67 mg/dL
same,LACTATE DEHYDROGENASE,[1],139.33 u/L
same,LIPASE,[1],9.5 u/L
same,PHOSPHORUS,[1],10.85 mg/dL
same,POTASSIUM,[1],6.38 MEQ/L
same,SODIUM,[1],143.2 MEQ/L
same,TOTAL BILIRUBIN,[1],0.2 mg/dL
same,TOTAL PROTEIN,[1],5.77 G/DL
same,URIC ACID,[1],0.7 mg/dL
same,ABSOLUTE BASOPHIL,[2],0 CELLS/uL
same,ABSOLUTE EOSINOPHIL,[2],0 CELLS/uL
same,ABSOLUTE LYMPHOCYTE,[2],8295.33 CELLS/uL
same,ABSOLUTE MONOCYTE,[2],84.67 CELLS/uL
same,ABSOLUTE SEGMENTED NEUTROPHIL,[2],970 CELLS/uL
same,BASOPHIL,[2],0%
same,EOSINOPHIL,[2],0%
same,ERYTHROCYTE COUNT,[2],5.74 x10E6/uL
same,HEMATOCRIT,[2],36.22%
same,HEMOGLOBIN,[2],13.85 G/DL
same,LEUKOCYTE COUNT,[2],9.35 x10E3/uL
same,LYMPHOCYTE,[2],88.67%
same,MEAN CORPUSCULAR HEMOGLOBIN,[2],24.13 pg
same,MEAN CORPUSCULAR HEMOGLOBIN CONCENTRATION,[2],38.25 G/DL
same,MEAN CORPUSCULAR VOLUME,[2],63.08 fL
same,MONOCYTE,[2],1%
same,NEUTROPHIL,[2],10.33%
same,NUCLEATED RED BLOOD CELLS,[2],0.17 /100WBC
same,PLATELET COUNT,[2],883.83 x10E3/uL
same,ALANINE AMINOTRANSFERASE,[2],64.5 u/L
same,ALBUMIN,[2],4.12 G/DL
same,ALKALINE PHOSPHATASE,[2],425.67 u/L
same,ASPARTATE AMINOTRANSFERASE,[2],88.5 u/L
same,BLOOD UREA NITROGEN,[2],14.17 mg/dL
same,CARBON DIOXIDE,[2],30.5 mmol/L
same,CHLORIDE,[2],100.33 MEQ/L
same,CHOLESTEROL,[2],55.33 mg/dL
same,CREATINE PHOSPHOKINASE,[2],287.17 u/L
same,CREATININE,[2],0.2 mg/dL
same,GLUCOSE,[2],162.83 mg/dL
same,LACTATE DEHYDROGENASE,[2],111.33 u/L
same,LIPASE,[2],10.5 u/L
same,PHOSPHORUS,[2],10.32 mg/dL
same,POTASSIUM,[2],5.13 MEQ/L
same,SODIUM,[2],143.93 MEQ/L
same,TOTAL BILIRUBIN,[2],0.17 mg/dL
same,TOTAL PROTEIN,[2],5.9 G/DL
same,URIC ACID,[2],0.77 mg/dL
same,ABSOLUTE BASOPHIL,[3],0 CELLS/uL
same,ABSOLUTE EOSINOPHIL,[3],0 CELLS/uL
same,ABSOLUTE LYMPHOCYTE,[3],11414.33 CELLS/uL
same,ABSOLUTE MONOCYTE,[3],52 CELLS/uL
same,ABSOLUTE SEGMENTED NEUTROPHIL,[3],1133.67 CELLS/uL
same,BASOPHIL,[3],0%
same,EOSINOPHIL,[3],0%
same,ERYTHROCYTE COUNT,[3],5.32 x10E6/uL
same,HEMATOCRIT,[3],33.6%
same,HEMOGLOBIN,[3],13.17 G/DL
same,LEUKOCYTE COUNT,[3],12.6 x10E3/uL
same,LYMPHOCYTE,[3],91%
same,MEAN CORPUSCULAR HEMOGLOBIN,[3],24.8 pg
same,MEAN CORPUSCULAR HEMOGLOBIN CONCENTRATION,[3],39.2 G/DL
same,MEAN CORPUSCULAR VOLUME,[3],63.37 fL
same,MONOCYTE,[3],0.33%
same,NEUTROPHIL,[3],8.67%
same,NUCLEATED RED BLOOD CELLS,[3],0 /100WBC
same,PLATELET COUNT,[3],1057.33 x10E3/uL
same,ALANINE AMINOTRANSFERASE,[3],67.67 u/L
same,ALBUMIN,[3],4.03 G/DL
same,ALKALINE PHOSPHATASE,[3],399.67 u/L
same,ASPARTATE AMINOTRANSFERASE,[3],91 u/L
same,BLOOD UREA NITROGEN,[3],10.33 mg/dL
same,CARBON DIOXIDE,[3],32.67 mmol/L
same,CHLORIDE,[3],99 MEQ/L
same,CHOLESTEROL,[3],74 mg/dL
same,CREATINE PHOSPHOKINASE,[3],353.33 u/L
same,CREATININE,[3],0.24 mg/dL
same,GLUCOSE,[3],146 mg/dL
same,LACTATE DEHYDROGENASE,[3],177 u/L
same,LIPASE,[3],9 u/L
same,PHOSPHORUS,[3],11.23 mg/dL
same,POTASSIUM,[3],6.24 MEQ/L
same,SODIUM,[3],143.6 MEQ/L
same,TOTAL BILIRUBIN,[3],0.17 mg/dL
same,TOTAL PROTEIN,[3],5.7 G/DL
same,URIC ACID,[3],0.6 mg/dL
